The subject of assay [1] is HLA-A*02:01 transgenic mouse. The assay can be described thus: In vivo adjuvant activity, CTL induction with vaccine b, IFNγ ELISPOT (Test 17). Conditions: 0.04 nmol or 0.4 nmol per body added to vaccine b versus no compound; twice. As to the method: The in vivo adjuvant activity of the compounds prepared in Examples 7, 8, and 9 was evaluated in the following procedure. To vaccine b comprising Compound of formula 4 prepared in Reference example 9 and Peptide SEQ ID No. 3 prepared in Reference example 3 with Montanide ISA51 VG was added the compound prepared in Example 7, 8, or 9 to prepare each vaccine. The vaccine was administered to a HLA-A*02:01 transgenic mouse, and the adjuvant activity of each vaccine was evaluated by the method of testing antigen-specific CTL induction.
(§1) Specifically, Compound of formula 4 and Peptide SEQ ID No. 3 were dissolved in DMSO, and then diluted with water for injection to concentrations of Compound of formula 4 of 3 mg/mL and Peptide SEQ ID No. 3 of 2.25 mg/mL. The diluted peptide solution was mixed and emulsified with an equal volume of Montanide ISA 51 VG to prepare vaccine b. Vaccine b was injected to mice intradermally at the tail base area in an amount for administering 300 μg of Compound of formula 4 per body and 225 μg of Peptide SEQ ID No. 3 per body. […] Then, after removal of the supernatant from the wells, stained spots on the ELISPOT plate were counted.

Another assay concerns the target T1, human TLR7 (Homo sapiens, UniProt Q9NYK1).
T1 construct: expresses full-length human TLR7 and secretory alkaline phosphatase (SEAP) reporter gene; host or cells: TLR7/NF-κB/SEAPorter HEK293 cell line
T1 sequence (Q9NYK1 27-1049): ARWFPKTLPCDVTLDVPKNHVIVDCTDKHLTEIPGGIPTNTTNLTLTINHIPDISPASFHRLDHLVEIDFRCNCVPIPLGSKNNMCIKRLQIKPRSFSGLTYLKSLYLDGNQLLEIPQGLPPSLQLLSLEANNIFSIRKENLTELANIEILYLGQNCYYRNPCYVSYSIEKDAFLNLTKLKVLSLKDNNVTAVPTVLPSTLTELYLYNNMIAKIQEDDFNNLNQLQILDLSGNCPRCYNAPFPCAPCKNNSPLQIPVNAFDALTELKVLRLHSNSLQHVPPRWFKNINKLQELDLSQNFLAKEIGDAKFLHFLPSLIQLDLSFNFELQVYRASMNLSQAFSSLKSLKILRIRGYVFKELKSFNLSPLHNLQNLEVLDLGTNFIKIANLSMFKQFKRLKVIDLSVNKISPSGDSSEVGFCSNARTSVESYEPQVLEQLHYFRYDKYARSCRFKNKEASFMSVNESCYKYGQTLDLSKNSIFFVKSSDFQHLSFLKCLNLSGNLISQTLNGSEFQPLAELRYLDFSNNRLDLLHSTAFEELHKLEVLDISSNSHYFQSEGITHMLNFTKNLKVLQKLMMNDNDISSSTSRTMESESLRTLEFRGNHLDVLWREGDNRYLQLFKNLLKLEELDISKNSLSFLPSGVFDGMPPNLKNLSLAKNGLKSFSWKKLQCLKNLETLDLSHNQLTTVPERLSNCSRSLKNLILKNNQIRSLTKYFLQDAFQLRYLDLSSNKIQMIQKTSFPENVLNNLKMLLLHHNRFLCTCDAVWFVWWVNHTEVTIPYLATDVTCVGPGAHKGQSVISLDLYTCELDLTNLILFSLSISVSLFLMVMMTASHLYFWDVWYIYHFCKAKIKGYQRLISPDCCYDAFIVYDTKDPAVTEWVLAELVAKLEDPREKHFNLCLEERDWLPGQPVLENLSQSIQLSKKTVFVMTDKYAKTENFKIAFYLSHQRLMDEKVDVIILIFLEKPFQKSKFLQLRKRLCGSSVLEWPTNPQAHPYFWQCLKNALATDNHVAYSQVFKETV
The assay can be described thus: Human TLR7 reporter gene assay (Test 1). It is filed as cell-based. Conditions: half-maximal SEAP induction, TLR7/NF-κB/SEAPorter HEK293 cell line, overnight 37° C., 0.1% DMSO. An excerpt: TLR7/NF-κB/SEAPorter™ HEK293 cell line (Imgenex Corporation) is a stably co-transfected cell line which expresses full-length human TLR7 and secretory alkaline phosphatase (SEAP) reporter gene under the transcriptional regulation of an NF-κB response element. The TLR7 expression of the cell line has been already tested by flow cytometry. Transfectants with stable expression were selected using the antibiotic blasticidin and Geneticin. TLR signaling leads to the translocation of NF-κB and the activation of the promoter results in expression of the SEAP gene. TLR7-specific activation was assessed by determining the level of SEAP produced following overnight incubation of the cells at 37° C. with each compound prepared in Examples and Reference examples in the presence of 0.1% (v/v) dimethylsulfoxide (DMSO). The human TLR7 activity for the present compound was assessed by human TLR7 reporter gene assay, and the results are shown in Tables 6 and 7 as the compound concentration which produced half of the maximal level of SEAP induction (EC50).

The next assay concerns the target T2, mouse TLR7 (Mus musculus, UniProt P58681).
T2 construct: expresses full-length mouse TLR7 and secretory SEAP reporter gene; host or cells: HEK-Blue mTLR7 cell line
T2 sequence (P58681 27-1050): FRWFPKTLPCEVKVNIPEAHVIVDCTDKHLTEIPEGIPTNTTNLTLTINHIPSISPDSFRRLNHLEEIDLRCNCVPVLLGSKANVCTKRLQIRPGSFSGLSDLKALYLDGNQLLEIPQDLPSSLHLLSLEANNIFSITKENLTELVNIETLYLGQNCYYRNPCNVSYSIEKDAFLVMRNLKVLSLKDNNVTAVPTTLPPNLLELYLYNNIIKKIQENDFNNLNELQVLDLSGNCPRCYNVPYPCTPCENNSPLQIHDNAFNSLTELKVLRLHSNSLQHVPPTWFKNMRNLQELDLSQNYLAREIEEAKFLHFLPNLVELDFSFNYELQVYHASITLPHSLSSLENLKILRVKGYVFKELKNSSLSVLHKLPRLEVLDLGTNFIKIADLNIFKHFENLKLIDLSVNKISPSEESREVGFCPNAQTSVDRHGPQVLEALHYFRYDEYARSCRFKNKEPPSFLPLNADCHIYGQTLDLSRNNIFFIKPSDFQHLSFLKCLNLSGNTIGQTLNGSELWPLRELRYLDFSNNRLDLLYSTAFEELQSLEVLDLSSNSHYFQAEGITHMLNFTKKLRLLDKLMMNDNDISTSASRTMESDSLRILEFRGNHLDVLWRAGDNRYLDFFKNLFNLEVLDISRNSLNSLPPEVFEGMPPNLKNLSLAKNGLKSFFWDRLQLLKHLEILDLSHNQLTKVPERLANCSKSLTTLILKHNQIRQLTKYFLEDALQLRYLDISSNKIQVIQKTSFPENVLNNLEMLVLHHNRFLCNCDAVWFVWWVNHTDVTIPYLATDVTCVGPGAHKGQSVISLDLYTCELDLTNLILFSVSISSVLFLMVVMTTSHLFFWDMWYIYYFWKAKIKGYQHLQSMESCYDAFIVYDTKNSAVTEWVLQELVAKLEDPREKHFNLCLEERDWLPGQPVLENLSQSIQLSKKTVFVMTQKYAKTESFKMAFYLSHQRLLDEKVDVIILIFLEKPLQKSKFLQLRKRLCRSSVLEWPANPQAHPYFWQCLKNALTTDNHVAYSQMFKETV
The assay can be described thus: Mouse TLR7 reporter gene assay (Test 2). It is filed as cell-based. As to conditions: half-maximal SEAP induction, HEK-Blue mTLR7 cell line, overnight 37° C., 0.1% DMSO. The text has this: HEK-Blue™ mTLR7 cell line (Invivogen) is a stably co-transfected cell line which expresses full-length mouse TLR7 and secretory SEAP reporter gene under the transcriptional regulation of an NF-κB response element. The TLR7 expression of the cell line has been already tested by RT-PCR. Transfectants with stable expression were selected using the antibiotic blasticidin and Zeocin. TLR signaling leads to the translocation of NF-κB and the activation of the promoter results in expression of the SEAP gene. TLR7-specific activation was assessed by determining the level of SEAP produced following overnight incubation of the cells at 37° C. with each compound prepared in Examples and Reference examples in the presence of 0.1% (v/v) DMSO. The mouse TLR7 activity for the present compound was assessed by mouse TLR7 reporter gene assay, and the results are shown in Tables 8 and 9 as the compound concentration which produced half of the maximal level of SEAP induction (EC50).

Assay [2] concerns HLA-A*02:01 transgenic mouse. The experiment in a line: In vivo adjuvant activity, CTL induction with vaccine b, IFNγ ELISPOT (Test 18). As to conditions: 0.04 nmol per body added to vaccine b versus no compound; twice. As to the method: The in vivo adjuvant activity of the compound of Example 6 was evaluated in the following procedure. To vaccine b like Test 17 was added the compound prepared in Example 6 to prepare a vaccine. The vaccine was administered to a HLA-A*02:01 transgenic mouse, and the adjuvant activity of the vaccine was evaluated by the method of testing antigen-specific CTL induction.
as §1, with “body. Or, in the step of preparing vaccine b, the compound prepared in Example 6 was added to the diluted peptide solution to prepare a vaccine, and the prepared vaccine was injected to mice intradermally at the tail base area in an amount for administering 300 μg of Compound of formula 4 per body, 225 μg of Peptide SEQ ID No. 3 per body, and 0.04 nmol of the compound prepared in Example 6 per body.” for “body.”

Take `CCCCOc1nc(N)c2[nH]c(=O)n(Cc3ccc(CN(C)CCOCCOCCOCCOCCOCCOCCOCCOCCOCCO)nc3)c2n1` [Example 7, 6-Amino-2-butoxy-9-{[6-(31-hydroxy-2-methyl-5,8,11,14,17,20,23,26,29-nonaoxa-2-azahentriacontan-1-yl)pyridin-3-yl]methyl}-7,9-dihydro-8H-purin-8-one]: in assay [1], the “CTL counts responsive to Peptide SEQ ID No. 5” value is on record as “more”.

`COCCOc1nc(N)c2[nH]c(=O)n(Cc3ccc(CN(C)CCOCCOCCOCCOCCO)cc3)c2n1` [Example 4, 6-amino-9-{[4-(16-hydroxy-2-methyl-5,8,11,14-tetraoxa-2-azahexadecan-1-yl)phenyl]methyl}-2-(2-methoxyethoxy)-7,9-dihydro-8H-purin-8-one]: a half-maximal response at human TLR7 (Table 6, Examples) (EC50) required 5.3 µM.

For the compound `CCCCOc1nc(N)c2[nH]c(=O)n(Cc3ccc(CN(C)CCOCCOCCOCCOCCO)cn3)c2n1` [Example 1, 6-amino-2-butoxy-9-{[5-(16-hydroxy-2-methyl-5,8,11,14-tetraoxa-2-azahexadecan-1-yl)pyridin-2-yl]methyl}-7,9-dihydro-8H-purin-8-one.trifluoroacetate], the EC50 on human TLR7 (Table 6, Examples) was determined as 0.15 µM; at mouse TLR7 (Table 8, Examples) it was 1.45 µM.

As for `CCCCOc1nc(N)c2[nH]c(=O)n(Cc3ccc(CN(C)CCOCCOCCOCCOCCOCCOCCOCCOCCOCCOCCOCCOCCOCCOCCOCCOCCOCCOCCOCCOCCOCCOCCOCCO)nc3)c2n1` [Example 8, 6-Amino-2-butoxy-9-{[6-(73-hydroxy-2-methyl-5,8,11,14,17,20,23,26,29,32,35,38,41,44,47,50,53,56,59,62,65,68,71-tricosaoxa-2-azatriheptacontan-1-yl)pyridin-3-yl]methyl}-7,9-dihydro-8H-purin-8-one], the “CTL counts responsive to Peptide SEQ ID No. 5” value in assay [1] is “more”.

Turning to `CCCCOc1nc(N)c2[nH]c(=O)n(Cc3ccc(CNC)cn3)c2n1` [compound 13, reference compound], the EC50 is 0.082 µM at human TLR7 (Table 7, Reference examples) and 0.279 µM on mouse TLR7 (Table 9, Reference examples).

Consider `CCCCOc1nc(N)c2[nH]c(=O)n(Cc3ccc(CN(CCOCCOCCOCCO)CCOCCOCCOCCO)nc3)c2n1` [Example 6, 6-Amino-2-butoxy-9-({6-[13-hydroxy-2-(2-{2-[2-(2-hydroxyethoxy)ethoxy]ethoxy}ethyl)-5,8,11-trioxa-2-azatridecan-1-yl]pyridin-3-yl}methyl)-7,9-dihydro-8H-purin-8-one], for which, in assay [2], the “CTL counts responsive to Peptide SEQ ID No. 5” value is recorded as “more”.

The values above are taken from US20220241409A1, “WATER SOLUBLE ADJUVANT AND COMPOSITION CONTAINING SAME” (Sumitomo Dainippon Pharma Co., Ltd., priority 2019, published 2022).
